Laboratory results published in patent publication US10829464B2, “Benzoheterocyclic alkylamine compounds and use thereof” (priority 2016, dated 2020).
In brackets after ≈: the same amount, converted by molar mass. Counter-ions that a name gives are not always drawn.

Legend:
HepG2 = assay: In vitro cytotoxicity assay
HEK293 = assay: In vitro cytotoxicity assay
S. aureus strain Newman = assay: IC50 determination of inhibition of staphyloxanthin synthesis; type: cell-based; conditions: Staphylococcus aureus; S. aureus strain Newman, Table 1; read-out: IC50, inhibitory activity on staphyloxanthin synthesis
Procedure: Selection of compound concentrations: based on the preliminary screening results, the ability of each compound to inhibit staphyloxanthin synthesis was determined. […] According to the assay results, 10 different concentration gradients were designed for each compound, such that the ability to inhibit staphyloxanthin synthesis comprised substantially from 0% to 100%.
Culture of the strains: single colonies of strain Newman and crtN mutant strain were picked from TSA plates, added into test tubes containing 4 mL of sterile TSB medium, and cultured at 37° C. and 250 rpm for 12 h for later use.
The relative level of staphyloxanthin synthesis at each concentration of the compound of the invention=A450 (sample)/A450 (negative control)*100%. With the molar concentration of the compound as the abscissa and the relative level of staphyloxanthin synthesis as the ordinate, a curve fitting of inhibitor concentration-inhibition rate (log(inhibitor) vs response) was performed in Graphpad prism 5.0 software, and the IC50 of the compound for inhibiting staphyloxanthin synthesis was calculated by software based on the fitting results.
S. aureus was selected for IC50 determination with respect to activity of inhibiting staphyloxanthin synthesis. […]

[1] = tested on: Staphylococcus aureus subsp. aureus str. strain Newman; assay: Preliminary screening assay of inhibition of staphyloxanthin synthesis; type: cell-based; conditions: 50, 10, 5, 2.5, 1.25, 0.625, 0.3125 and 0 μM from left to right
Procedure: Strains used for assay: freshly activated wild-type Staphylococcus aureus subsp. aureus str. strain Newman and its homologous mutant strain having crtN insertion (without staphyloxanthin synthesis).
Medium for assay: Tryptone Soy broth (TSB), a product from Oxid Corporation, the United Kingdom, which was formulated with distilled water, sterilized at 121° C. for 15 min for later use.
Method of Preliminary Screening Assay:
(1) Preparation of compound: the compound of the invention was dissolved in dimethyl sulfoxide (DMSO) to prepare a stock solution having a concentration of 10 mM; 400 μL of DMSO was added to 100 μL of the stock solution to get a dilution with a concentration of 2 mM; 250 μL (2 mM) of the dilution was taken after mixing, and an equal amount of DMSO was added thereto for 2-fold dilution to get a solution with a concentration of […] for later use.
(2) Culture of the strain: single colonies of strain Newman were picked from TSA plates into a test tube containing 4 mL of sterile TSB medium, and cultured at 37° C. and 250 rpm for 12 h for later use.

Trichophyton rubrum = assay: In vitro antifungal assay (micro liquid-based dilution); type: cell-based; conditions: read-out: Antifungal Activities, MIC80
Microsporum gypseum = assay: as above; type: cell-based; conditions: Nannizzia gypsea, read-out: Antifungal Activities, MIC80
Tinea barbae = assay: as above; type: cell-based; conditions: read-out: Antifungal Activities, MIC80
LRSA202 = assay: In vivo pharmacodynamics evaluation in infected mice; conditions: BALB/c mice infected retroorbitally with LRSA202
Procedure: (§1) Compound IA-25 was used as a representative compound. The laboratory SPF-grade female BALB/c mice were purchased from Shanghai Jiesijie Laboratory Animal Co., Ltd. and bred under aseptic condition to 6-8 weeks old. The S. aureus strains which had been cultured overnight were transferred to fresh and sterile TSB medium and cultured at 37° C. and 250 rpm for 3 h to exponential growth phase; the culture was washed twice with PBS buffer, and then suspended in PBS for later use. In the mouse infection assay, the mice were divided into several groups, each containing 10 mice.

LRSA56 = assay: as above; conditions: BALB/c mice infected retroorbitally with LRSA56
Procedure: as §1

Mu50 = assay: as above; conditions: BALB/c mice infected retroorbitally with Mu50
Procedure: as §1

NF65Y = assay: as above; conditions: BALB/c mice infected retroorbitally with NF65Y
Procedure: as §1

NRS108 = assay: as above; conditions: BALB/c mice infected retroorbitally with NRS108
Procedure: as §1

NRS271 = assay: as above; conditions: BALB/c mice infected retroorbitally with NRS271
Procedure: as §1

strain Newman = assay: as above; conditions: BALB/c mice infected retroorbitally with Newman
Procedure: as §1

[2] = tested on: wild-type S. aureus Newman strain; assay: Verification assay using CrtN as a target (HPLC of carotenoid extract); type: cell-based, Staphylococcus aureus; conditions: 100 μM added to wild-type strain Newman, 440 nm
CYP enzyme subtype 2C19 = CYP enzyme subtype 2C19 (Homo sapiens, UniProt P33261); assay: Inhibition assay on hepatic CYP450 enzyme; type: in vitro ADME; conditions: CYP 2C19; read-out: Half inhibitory concentration (IC50)
CYP enzyme subtype 2C19, sequence (P33261 whole entry): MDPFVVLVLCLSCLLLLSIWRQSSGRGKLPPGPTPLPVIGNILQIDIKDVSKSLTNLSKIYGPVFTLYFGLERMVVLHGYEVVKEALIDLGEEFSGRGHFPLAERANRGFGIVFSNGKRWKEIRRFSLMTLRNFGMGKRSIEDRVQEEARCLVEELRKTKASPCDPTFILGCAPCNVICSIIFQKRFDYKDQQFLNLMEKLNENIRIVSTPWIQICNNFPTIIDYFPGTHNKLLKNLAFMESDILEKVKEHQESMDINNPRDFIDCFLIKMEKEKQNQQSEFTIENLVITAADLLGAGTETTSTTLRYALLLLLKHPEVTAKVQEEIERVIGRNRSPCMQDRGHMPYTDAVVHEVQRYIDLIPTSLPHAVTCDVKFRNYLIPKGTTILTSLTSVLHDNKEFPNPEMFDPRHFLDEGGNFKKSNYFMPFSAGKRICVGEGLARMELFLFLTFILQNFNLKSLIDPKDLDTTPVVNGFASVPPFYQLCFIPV

C[C@@H]1[C@H](O)[C@@H](C)/C=C/C=C/C=C/C=C/C=C/C=C/C=C/[C@H](O[C@@H]2O[C@H](C)[C@@H](O)[C@H](N)[C@@H]2O)C[C@@H]2O[C@](O)(C[C@@H](O)C[C@@H](O)[C@H](O)CC[C@@H](O)C[C@@H](O)CC(=O)O[C@H]1C)C[C@H](O)[C@H]2C(=O)O [Amphotericin B]
CC50 of compounds on cells (HepG2): 2.956 mg/L | CC50 of compounds on cells (HEK293): 3.923 mg/L

CCN(C/C=C/c1ccc(C(F)(F)F)cc1)Cc1coc2ccccc12 [Compound IB-2, (E)-N-ethyl-N-[(benzofuran-3-yl)methylene]-3-(4-trifluoromethylphenyl)-prop-2-en-1-amine]
IC50 (S. aureus strain Newman): > 1 µM

CC(C)N(C/C=C/c1ccc(C(F)(F)F)cc1)Cc1coc2ccccc12 [Compound IB-3, (E)-N-isopropyl-N-[(benzofuran-3-yl)methylene]-3-(4-trifluoromethylphenyl)-prop-2-en-1-amine]
IC50 (S. aureus strain Newman): > 1 µM

CN(Cc1coc2ccccc12)C[C@@H]1C[C@H]1c1ccc(-c2ccccc2)cc1 [Compound IC-1, 1-((1R,2R)-2-([1,1′-biphenyl]-4-yl)cyclopropyl)-N-(benzofuran-3-ylmethyl)-N-methylmethanamine]
colors in final photograph of inhibition of staphyloxanthin synthesis [1]: white to yellow from left to right gradually | IC50 (S. aureus strain Newman): > 1 µM

CN(CC#Cc1ccc(-c2ccccc2)cc1)Cc1coc2ccccc12 [Compound ID-1]
IC50 (S. aureus strain Newman): > 1 µM

CN(CCCc1ccc(-c2ccccc2)cc1)Cc1coc2ccccc12 [Compound IE-1, 3-([1,1′-biphenyl]-4-yl)-N-(benzofuran-3-ylmethyl)-N-methylpropan-1-amine]
IC50 (S. aureus strain Newman): > 1 µM

CN(C/C=C/c1ccc(C(F)(F)F)cc1)Cc1cc2ccccc2o1 [Compound IF-1, (E)-N-(benzofuran-2-ylmethyl)-N-methyl-3-(4-(trifluoromethyl)phenyl)prop-2-en-1-amine]
IC50 (S. aureus strain Newman): 0.0703 ± 0.0052 µM

CN(C/C=C/c1ccc(C(F)(F)F)cc1)Cc1cc2ccccc2s1 [Compound IF-2, (E)-N-(benzo[b]thiophen-2-ylmethyl)-N-methyl-3-(4-(trifluoromethyl)phenyl)prop-2-en-1-amine]
IC50 (S. aureus strain Newman): 0.0953 ± 0.0016 µM

OC(Cn1cncn1)(Cn1cncn1)c1ccc(F)cc1F [Fluconazole]
MIC80 (Trichophyton rubrum): 1 mg/L (≈ 3.27 µM) | MIC80 (Microsporum gypseum): 8 mg/L (≈ 26.1 µM) | MIC80 (Tinea barbae): 2 mg/L (≈ 6.53 µM)

CC(=O)N1CCN(c2ccc(OCC3COC(Cn4ccnc4)(c4ccc(Cl)cc4Cl)O3)cc2)CC1 (centres unmarked) [Ketoconazole]
MIC80 (Trichophyton rubrum): 0.5 mg/L (≈ 0.941 µM) | MIC80 (Microsporum gypseum): 2 mg/L (≈ 3.76 µM) | MIC80 (Tinea barbae): 0.0625 mg/L (≈ 0.118 µM)

CC(=O)NC[C@H]1CN(c2ccc(N3CCOCC3)c(F)c2)C(=O)O1 [Linezolid]
Viable colony counts in vivo (LRSA202): 4.6 Log10CFU | Viable colony counts in vivo (LRSA56): 4.6 Log10CFU | Viable colony counts in vivo (Mu50): 3.1 Log10CFU | Viable colony counts in vivo (NF65Y): 5.1 Log10CFU | Viable colony counts in vivo (NRS108): 2.3 Log10CFU | Viable colony counts in vivo (NRS271): 8.3 Log10CFU | Viable colony counts in vivo (strain Newman): 4.9 Log10CFU

CN[C@H](CC(C)C)C(=O)N[C@H]1C(=O)N[C@@H](CC(N)=O)C(=O)N[C@H]2C(=O)N[C@H]3C(=O)N[C@H](C(=O)N[C@H](C(=O)O)c4cc(O)cc(O)c4-c4cc3ccc4O)[C@H](O)c3ccc(c(Cl)c3)Oc3cc2cc(c3O[C@@H]2O[C@H](CO)[C@@H](O)[C@H](O)[C@H]2O[C@H]2C[C@](C)(N)[C@H](O)[C@H](C)O2)Oc2ccc(cc2Cl)[C@H]1O [Vancomycin]
Viable colony counts in vivo (LRSA202): 5.3 Log10CFU | Viable colony counts in vivo (LRSA56): 3.8 Log10CFU | Viable colony counts in vivo (Mu50): 5.4 Log10CFU | Viable colony counts in vivo (NF65Y): 4.6 Log10CFU | Viable colony counts in vivo (NRS108): 2.4 Log10CFU | Viable colony counts in vivo (NRS271): 6.5 Log10CFU | Viable colony counts in vivo (strain Newman): 4.3 Log10CFU

C[C@@H](c1ncncc1F)[C@](O)(Cn1cncn1)c1ccc(F)cc1F [Voriconazole]
MIC80 (Trichophyton rubrum): 0.0312 mg/L (≈ 0.0895 µM) | MIC80 (Microsporum gypseum): 0.25 mg/L (≈ 0.716 µM) | MIC80 (Tinea barbae): 0.0312 mg/L (≈ 0.0895 µM)

CN(C/C=C/c1ccccc1)Cc1cccc2ccccc12 [naftifine hydrochloride, reference compound]
HPLC absorption peaks of carotenoid extract [2]: absorption peaks at the original peak position disappeared again

COc1ccc2[nH]c([S+]([O-])Cc3ncc(C)c(OC)c3C)nc2c1 (centres unmarked) [omeprazole, reference compound]
IC50 (CYP enzyme subtype 2C19): 3.88 µM
